The values that follow come from the supplement of paper PMC4862054.

Settings in all cases: 72 h
The test system of assay [1] is BT-474. The essentials:
(§1)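 Viability of breast cancer cell lines was measured with CellTiter-Blue after 72 h of incubation on compound-loaded 384-well plates. Cells were seeded in 20 µl onto compound dissolved in 5 µl medium, and 2.5 µl reagent was added for 2 h at 37 °C before reading at 560/590 nm. EC50 was fitted from percent-inhibition dose-response data censored at the highest concentration, normalised per plate to vehicle and a positive kill control, with zero drug sensitivity score rows dropped.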

In assay [2] the test system is HDQ-P1. In short, it runs like this:
as §1

The subject of assay [3] is CAL-85-1. The essentials:
as §1

Assay [4] relates to MDA-MB-453. In short, it runs like this: as §1
Assay [5] deals with CAL-120. In short, it runs like this:
as §1

Assay [6] concerns MDA-MB-231. In short, it runs like this:
as §1

Assay [7] has as its system HCC1143. In short, it runs like this:
as §1

Assay [8] relates to HCC1599. In short, it runs like this: as §1
The test system of assay [9] is DU-4475. In short, it runs like this:
as §1

Assay [10] has as its system CAL-51. In short, it runs like this: as §1
The subject of a further assay is MDA-MB-468. In short, it runs like this: (§2)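 EC50 was fitted from dose-response curves and censored at the highest concentration tested. To build those curves, breast cancer cell lines (20 µl suspension) were seeded into 384-well plates containing compound at 5 concentrations in 10-fold steps over a compound-specific 10,000-fold range and incubated for 72 h. Readouts were CellTox Green fluorescence (485/520 nm) for cell death and then CellTiter-Glo luminescence for viability, with each plate normalised to 0.1 % DMSO and a positive kill control.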

For assay [11], the system named is CAL-120. In short, it runs like this:
as §2
This is another data set of the same source.

The subject of assay [12] is CAL-51. The essentials:
as §2
The source holds these as a separate data set.

The subject of assay [13] is BT-474. In short, it runs like this: as §2
The source holds these as a separate data set.

Assay [14] concerns MDA-MB-436. In short, it runs like this: as §1
Assay [15] concerns Hs578T. In short, it runs like this:
as §1

The subject of assay [16] is CAL-120. As for the experimental part:
(§3)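 Drug sensitivity and resistance testing (DSRT) of breast cancer cell lines in 384-well plates, 5 concentrations in 10-fold dilutions over a compound-specific 10,000-fold range. After 72 h, cytotoxicity was read by CellTox Green fluorescence and viability by CellTiter-Glo luminescence (multiplexed), normalised to DMSO and benzethonium chloride controls. EC50 is the inflection point of the fitted dose-response curve (bottom asymptote free, so it can be relative for partial curves) and is censored at the highest tested concentration. Rows with DSS 0 (no meaningful response) were excluded.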
This is another data set of the same source.

The subject of assay [17] is CAL-51. As to the method: as §3
This is another data set of the same source.

The subject of assay [18] is MCF-10A. As to the method:
as §3

The subject of assay [19] is CAL-85-1. As to the method:
as §3
This is another data set of the same source.

For assay [20], the system named is Hs578T. As to the method: as §3
This is another data set of the same source.

Assay [21] relates to MDA-MB-231. As to the method:
as §3
This is another data set of the same source.

Assay [22] has as its system MFM-223. As for the experimental part: as §3
The subject of assay [23] is BT-549. The essentials:
as §1

Assay [24] deals with MFM-223. In short, it runs like this: as §1
This is another data set of the same source.

The subject of assay [25] is HDQ-P1. The essentials:
as §2
The source holds these as a separate data set.

Assay [26] concerns DU-4475. In short, it runs like this:
as §2
The source holds these as a separate data set.

For assay [27], the system named is MCF-10A. The essentials:
as §2
The source holds these as a separate data set.

In assay [28] the test system is MDA-MB-436. The essentials:
as §2
The source holds these as a separate data set.

Assay [29] concerns BT-549. The essentials: as §2
The source holds these as a separate data set.

In assay [30] the test system is CAL-85-1. The essentials:
as §2
The source holds these as a separate data set.

Assay [31] relates to Hs578T. The essentials: as §2
The source holds these as a separate data set.

Assay [32] relates to CAL-148. The essentials:
as §2

Assay [33] concerns MDA-MB-231. In short, it runs like this: as §2
This is another data set of the same source.

Assay [34] concerns HCC1143. The essentials: as §2
This is another data set of the same source.

Assay [35] deals with HCC1599. The essentials:
as §2
This is another data set of the same source.

Assay [36] concerns MFM-223. The essentials: as §2
This is another data set of the same source.

Another assay concerns SK-BR-3. In short, it runs like this: as §2
Assay [37] concerns MDA-MB-453. The essentials: as §2
The source holds these as a separate data set.

Assay [38] has as its system CAL-148. In short, it runs like this:
as §1
The source holds these as a separate data set.

As to `C=CC(=O)N1CCC[C@@H](n2nc(-c3ccc(Oc4ccccc4)cc3)c3c(N)ncnc32)C1`, the “EC50, CellTiter-Blue viability” value with BT-474 [1] was 14.7 nM; in the assay on HDQ-P1 [2], 407 nM; in the assay on CAL-85-1 [3] it was 849 nM; in the assay on MDA-MB-453 [4], 18.5 nM.
In the case of `CC(=O)Nc1cccc(-n2c(=O)n(C3CC3)c(=O)c3c(Nc4ccc(I)cc4F)n(C)c(=O)c(C)c32)c1`, the “EC50, CellTiter-Blue viability” value was 20.6 nM in the assay with CAL-120 [5]; 1.8 nM in the assay on MDA-MB-231 [6]; 2.92 nM in the assay on HCC1143 [7]; 31.5 nM in the assay with HCC1599 [8]; 4.17 nM in the assay on HDQ-P1 [2]; 0.91 nM in the assay on DU-4475 [9]. For the same compound, the “EC50, CellTiter-Blue viability” value with CAL-51 [10] was 9.94 nM; with CAL-85-1 [3] it was 19.4 nM; with MDA-MB-453 [4], 20.2 nM.
Regarding `CCc1cncnc1N1CCN(Cc2nc3ccc(C(F)(F)F)cc3[nH]2)CC1`, the “EC50, CellTiter-Glo” value is 1350 nM in the assay on MDA-MB-468, greater than 10000 nM in the assay on CAL-120 [11], 543 nM with CAL-51 [12] and greater than 10000 nM in the assay on BT-474 [13].
In the case of `Cc1cnc(NC(=O)Nc2cc(Br)c(C)cc2OC[C@@H]2CNCCO2)cn1`, the “EC50, CellTiter-Blue viability” value in the assay on MDA-MB-436 [14] worked out at 98.7 nM; with Hs578T [15], 745 nM; with HCC1599 [8], 221 nM.
As to `NCCCNCCSP(=O)(O)O` [Amifostine], the “EC50, CellTiter-Blue viability” value with HCC1599 [8] is 224 nM.
Regarding `CC[C@@H]1C(=O)N(C)c2cnc(Nc3ccc(C(=O)NC4CCN(C)CC4)cc3OC)nc2N1C1CCCC1` [BI 2536], the “EC50, CellTox Green” value came to 120 nM in the assay on CAL-120 [16]; 5.72 nM in the assay on CAL-51 [17]; 2.65 nM in the assay with MCF-10A [18]; 24.1 nM in the assay with CAL-85-1 [19]; 419 nM in the assay with Hs578T [20]; 2.26 nM with MDA-MB-231 [21]. Besides, in the assay with MFM-223 [22], the “EC50, CellTox Green” value was determined as 2.41 nM. Moreover, the “EC50, CellTiter-Blue viability” value worked out at 3.52 nM in the assay with CAL-120 [5]; 3.72 nM with MDA-MB-436 [14]; 1.56 nM in the assay on BT-549 [23]; 10.5 nM in the assay on Hs578T [15]; 5.71 nM in the assay on MDA-MB-231 [6]; 6.32 nM in the assay with HCC1143 [7]. For the same compound, the “EC50, CellTiter-Blue viability” value in the assay on MFM-223 [24] was 1.57 nM; with HDQ-P1 [2] it was greater than 1000 nM; in the assay with DU-4475 [9], 6.01 nM; with CAL-51 [10] it was 12.5 nM; with CAL-85-1 [3], 2.85 nM; in the assay with CAL-148 [38], 4.74 nM. For the same compound, in the assay with MDA-MB-453 [4], the “EC50, CellTiter-Blue viability” value stood at 2.09 nM. Moreover, the “EC50, CellTiter-Glo” value in the assay with HDQ-P1 [25] was determined as 21.4 nM; in the assay on DU-4475 [26], 10.2 nM; in the assay on MDA-MB-468, 2.04 nM; in the assay on CAL-120 [11] it was 5.9 nM; in the assay with CAL-51 [12] it was 10.9 nM; in the assay with MCF-10A [27] it was 34 nM. The “EC50, CellTiter-Glo” value in the assay on MDA-MB-436 [28] worked out at 2.44 nM; in the assay with BT-549 [29], 4.82 nM; in the assay on CAL-85-1 [30] it was 2.42 nM; in the assay on Hs578T [31], 31.6 nM; in the assay with CAL-148 [32], 3.14 nM; with MDA-MB-231 [33], 2.75 nM. The “EC50, CellTiter-Glo” value worked out at 6.01 nM in the assay with HCC1143 [34]; 37.2 nM with HCC1599 [35]; 2.27 nM in the assay with MFM-223 [36]; 2.39 nM in the assay on SK-BR-3; 6.44 nM in the assay on BT-474 [13]; 2.55 nM in the assay on MDA-MB-453 [37].
In the case of `CC[C@H](Nc1ncnc2[nH]cnc12)c1nc2cccc(F)c2c(=O)n1-c1ccccc1` [CAL-101], the “EC50, CellTiter-Blue viability” value in the assay on CAL-120 [5] is 8280 nM; in the assay on BT-549 [23], 2240 nM; with HCC1143 [7] it was 2280 nM; with HCC1599 [8] it was 94.2 nM; in the assay on HDQ-P1 [2], 5250 nM; with DU-4475 [9], 5560 nM. In the assay on MDA-MB-453 [4], the “EC50, CellTiter-Blue viability” value was found to be 2180 nM.
For `O=C(O)CCCCC(CCSCc1ccccc1)SCc1ccccc1` (configuration not stated) [CPI-613], the “EC50, CellTox Green” value in the assay with CAL-85-1 [19] was greater than 10000 nM.
`O=C(O)C1(C(=O)O)CCC1.[NH2-].[NH2-].[Pt+2]` [Carboplatin]: the “EC50, CellTiter-Blue viability” value came out at 9690 nM in the assay on MFM-223 [24], 9460 nM with CAL-51 [10], 5150 nM in the assay on CAL-148 [38] and 7350 nM in the assay with MDA-MB-453 [4].
In the case of `COc1cc2c(Oc3ccc4[nH]c(C)cc4c3F)ncnc2cc1OCCCN1CCCC1` [Cediranib], the “EC50, CellTiter-Glo” value in the assay with MFM-223 [36] was 338 nM.
